In PMC8534050, “Discovery of a Potent and Highly Isoform-Selective Inhibitor of the Neglected Ribosomal Protein S6 Kinase Beta 2 (S6K2)” (Cancers, 2021):

What was measured:
Experiment in all cases: DSF thermal shift assay
Type in all cases: binding
EPHB3 = molecular target: T1, EPHB3 (Homo sapiens, UniProt P54753); details: EPHB3; inhibitor 10 μM, protein 2 μM; read-out: ΔTm
T1 construct: purchased in-house DSF (thermal shift) panel per Fedorov et al
Procedure: (§1) Differences in the melting temperature (ΔTm) were measured as described by Fedorov et al.. Purified proteins were buffered in 25 mM HEPES (pH 7.5), 500 mM NaCl and were assayed in a 384-well plate with a final protein concentration of 2 μM in 10 μL assay volume. Inhibitors were added to a final concentration of 10 μM using an ECHO 550 acoustic dispenser (Labcyte, San José, CA, USA). As a fluorescence probe, SYPRO-Orange (Molecular Probes, Eugene, OR, USA) was added in a 1:5000 dilution. Filters for excitation and emission were set to 465 nm and 590 nm, respectively. The temperature was increased from 25 °C with 3 °C/min to a final temperature of 95 °C, while scanning, using the QuantStudio5 (Applied Biosystems, Waltham, MA, USA). Data were analyzed through Boltzmann equation in the Protein Thermal Shift software (Applied Biosystems, Waltham, MA, USA). Samples were measured in technical duplicates.

PLK4 = molecular target: T2, PLK4 (Homo sapiens, UniProt O00444); details: PLK4; inhibitor 10 μM, protein 2 μM; read-out: ΔTm
T2 construct: purchased in-house DSF (thermal shift) panel per Fedorov et al
Procedure: as §1

PAK1 = molecular target: T3, PAK1 (Homo sapiens, UniProt Q13153); details: PAK1; inhibitor 10 μM, protein 2 μM; read-out: ΔTm
T3 construct: purchased in-house DSF (thermal shift) panel per Fedorov et al
Procedure: as §1

CAMKK2 = molecular target: T4, CAMKK2 (Homo sapiens, UniProt Q96RR4); details: CAMKK2; inhibitor 10 μM, protein 2 μM; read-out: ΔTm
T4 construct: purchased in-house DSF (thermal shift) panel per Fedorov et al
Procedure: as §1

EPHA7 = molecular target: T5, EPHA7 (Homo sapiens, UniProt Q15375); details: EPHA7; inhibitor 10 μM, protein 2 μM; read-out: ΔTm
T5 construct: purchased in-house DSF (thermal shift) panel per Fedorov et al
Procedure: as §1

CDC42BPA = molecular target: T6, CDC42BPA (Homo sapiens, UniProt Q5VT25); details: CDC42BPA; inhibitor 10 μM, protein 2 μM; read-out: ΔTm
T6 construct: purchased in-house DSF (thermal shift) panel per Fedorov et al
Procedure: as §1

STK3 = molecular target: T7, STK3 (Homo sapiens, UniProt Q13188); details: STK3; inhibitor 10 μM, protein 2 μM; read-out: ΔTm
T7 construct: purchased in-house DSF (thermal shift) panel per Fedorov et al
Procedure: as §1

MERTK = molecular target: T8, MERTK (Homo sapiens, UniProt Q12866); details: MERTK; inhibitor 10 μM, protein 2 μM; read-out: ΔTm
T8 construct: purchased in-house DSF (thermal shift) panel per Fedorov et al
Procedure: as §1

NEK2 = molecular target: T9, NEK2 (Homo sapiens, UniProt P51955); details: NEK2; inhibitor 10 μM, protein 2 μM; read-out: ΔTm
T9 construct: purchased in-house DSF (thermal shift) panel per Fedorov et al
Procedure: as §1

SLK = molecular target: T10, SLK (Homo sapiens, UniProt Q9H2G2); details: SLK; inhibitor 10 μM, protein 2 μM; read-out: ΔTm
T10 construct: purchased in-house DSF (thermal shift) panel per Fedorov et al
Procedure: as §1

STK10 = molecular target: T11, STK10 (Homo sapiens, UniProt O94804); details: STK10; inhibitor 10 μM, protein 2 μM; read-out: ΔTm
T11 construct: purchased in-house DSF (thermal shift) panel per Fedorov et al
Procedure: as §1

WNK1 = molecular target: T12, WNK1 (Homo sapiens, UniProt Q9H4A3); details: WNK1; inhibitor 10 μM, protein 2 μM; read-out: ΔTm
T12 construct: purchased in-house DSF (thermal shift) panel per Fedorov et al
Procedure: as §1

DCAMKL1 = molecular target: T13, DCAMKL1 (Homo sapiens, UniProt O15075); details: DCAMKL1; inhibitor 10 μM, protein 2 μM; read-out: ΔTm
T13 construct: purchased in-house DSF (thermal shift) panel per Fedorov et al
Procedure: as §1

DAPK1 = molecular target: T14, DAPK1 (Homo sapiens, UniProt P53355); details: DAPK1; inhibitor 10 μM, protein 2 μM; read-out: ΔTm
T14 construct: purchased in-house DSF (thermal shift) panel per Fedorov et al
Procedure: as §1

STK39 = molecular target: T15, STK39 (Homo sapiens, UniProt Q9UEW8); details: STK39; inhibitor 10 μM, protein 2 μM; read-out: ΔTm
T15 construct: purchased in-house DSF (thermal shift) panel per Fedorov et al; IC50 follow-up at Reaction Biology Corp
Procedure: as §1

TTK1 = molecular target: T16, TTK1 (Homo sapiens, UniProt P33981); details: inhibitor 10 μM, protein 2 μM
T16 construct: purchased in-house DSF (thermal shift) panel per Fedorov et al
Procedure: as §1, with “Filters for excitation and emission were set to 465 nm and 590 nm, respectively. The temperature was increased from 25 °C with 3 °C/min to a final temperature of 95 °C, while scanning, using the QuantStudio5 (Applied Biosystems, Waltham, MA, USA).” left out

CAMK2B = molecular target: T17, CAMK2B (Homo sapiens, UniProt Q13554); details: inhibitor 10 μM, protein 2 μM
T17 construct: purchased in-house DSF (thermal shift) panel per Fedorov et al; IC50 follow-up at Reaction Biology Corp
Procedure: as §1, with “Filters for excitation and emission were set to 465 nm and 590 nm, respectively. The temperature was increased from 25 °C with 3 °C/min to a final temperature of 95 °C, while scanning, using the QuantStudio5 (Applied Biosystems, Waltham, MA, USA).” left out

GAK = molecular target: T18, GAK (Homo sapiens, UniProt O14976); details: inhibitor 10 μM, protein 2 μM
T18 construct: purchased in-house DSF (thermal shift) panel per Fedorov et al; IC50 follow-up at Reaction Biology Corp
Procedure: as §1, with “Filters for excitation and emission were set to 465 nm and 590 nm, respectively. The temperature was increased from 25 °C with 3 °C/min to a final temperature of 95 °C, while scanning, using the QuantStudio5 (Applied Biosystems, Waltham, MA, USA).” left out

CDKL1 = molecular target: T19, CDKL1 (Homo sapiens, UniProt Q00532); details: inhibitor 10 μM, protein 2 μM
T19 construct: purchased in-house DSF (thermal shift) panel per Fedorov et al; IC50 follow-up at Reaction Biology Corp
Procedure: as §1, with “Filters for excitation and emission were set to 465 nm and 590 nm, respectively. The temperature was increased from 25 °C with 3 °C/min to a final temperature of 95 °C, while scanning, using the QuantStudio5 (Applied Biosystems, Waltham, MA, USA).” left out

CLK3 = molecular target: T20, CLK3 (Homo sapiens, UniProt P49761); details: inhibitor 10 μM, protein 2 μM
T20 construct: purchased in-house DSF (thermal shift) panel per Fedorov et al
Procedure: as §1, with “Filters for excitation and emission were set to 465 nm and 590 nm, respectively. The temperature was increased from 25 °C with 3 °C/min to a final temperature of 95 °C, while scanning, using the QuantStudio5 (Applied Biosystems, Waltham, MA, USA).” left out

VRK1 = molecular target: T21, VRK1 (Homo sapiens, UniProt Q99986); details: inhibitor 10 μM, protein 2 μM
T21 construct: purchased in-house DSF (thermal shift) panel per Fedorov et al; IC50 follow-up at Reaction Biology Corp
Procedure: as §1, with “Filters for excitation and emission were set to 465 nm and 590 nm, respectively. The temperature was increased from 25 °C with 3 °C/min to a final temperature of 95 °C, while scanning, using the QuantStudio5 (Applied Biosystems, Waltham, MA, USA).” left out

RIOK1 = molecular target: T22, RIOK1 (Homo sapiens, UniProt Q9BRS2); details: inhibitor 10 μM, protein 2 μM
T22 construct: purchased in-house DSF (thermal shift) panel per Fedorov et al; IC50 follow-up at Reaction Biology Corp
Procedure: as §1, with “Filters for excitation and emission were set to 465 nm and 590 nm, respectively. The temperature was increased from 25 °C with 3 °C/min to a final temperature of 95 °C, while scanning, using the QuantStudio5 (Applied Biosystems, Waltham, MA, USA).” left out

TOPK = molecular target: T23, TOPK (Homo sapiens, UniProt Q96KB5); details: inhibitor 10 μM, protein 2 μM
T23 construct: purchased in-house DSF (thermal shift) panel per Fedorov et al
Procedure: as §1, with “Filters for excitation and emission were set to 465 nm and 590 nm, respectively. The temperature was increased from 25 °C with 3 °C/min to a final temperature of 95 °C, while scanning, using the QuantStudio5 (Applied Biosystems, Waltham, MA, USA).” left out

MAP2K6 = molecular target: T24, MAP2K6 (Homo sapiens, UniProt P52564); details: inhibitor 10 μM, protein 2 μM
T24 construct: purchased in-house DSF (thermal shift) panel per Fedorov et al
Procedure: as §1, with “Filters for excitation and emission were set to 465 nm and 590 nm, respectively. The temperature was increased from 25 °C with 3 °C/min to a final temperature of 95 °C, while scanning, using the QuantStudio5 (Applied Biosystems, Waltham, MA, USA).” left out

PKMYT1 = molecular target: T25, PKMYT1 (Homo sapiens, UniProt Q99640); details: inhibitor 10 μM, protein 2 μM
T25 construct: purchased in-house DSF (thermal shift) panel per Fedorov et al; IC50 follow-up at Reaction Biology Corp
Procedure: as §1, with “Filters for excitation and emission were set to 465 nm and 590 nm, respectively. The temperature was increased from 25 °C with 3 °C/min to a final temperature of 95 °C, while scanning, using the QuantStudio5 (Applied Biosystems, Waltham, MA, USA).” left out

RPS6KA6 = molecular target: T26, RPS6KA6 (Homo sapiens, UniProt Q9UK32); details: inhibitor 10 μM, protein 2 μM
T26 construct: purchased in-house DSF (thermal shift) panel per Fedorov et al
Procedure: as §1, with “Filters for excitation and emission were set to 465 nm and 590 nm, respectively. The temperature was increased from 25 °C with 3 °C/min to a final temperature of 95 °C, while scanning, using the QuantStudio5 (Applied Biosystems, Waltham, MA, USA).” left out

CAMK1D = molecular target: T27, CAMK1D (Homo sapiens, UniProt Q8IU85); details: inhibitor 10 μM, protein 2 μM
T27 construct: purchased in-house DSF (thermal shift) panel per Fedorov et al; IC50 follow-up at Reaction Biology Corp
Procedure: as §1, with “Filters for excitation and emission were set to 465 nm and 590 nm, respectively. The temperature was increased from 25 °C with 3 °C/min to a final temperature of 95 °C, while scanning, using the QuantStudio5 (Applied Biosystems, Waltham, MA, USA).” left out

T19 sequence (Q00532 whole entry): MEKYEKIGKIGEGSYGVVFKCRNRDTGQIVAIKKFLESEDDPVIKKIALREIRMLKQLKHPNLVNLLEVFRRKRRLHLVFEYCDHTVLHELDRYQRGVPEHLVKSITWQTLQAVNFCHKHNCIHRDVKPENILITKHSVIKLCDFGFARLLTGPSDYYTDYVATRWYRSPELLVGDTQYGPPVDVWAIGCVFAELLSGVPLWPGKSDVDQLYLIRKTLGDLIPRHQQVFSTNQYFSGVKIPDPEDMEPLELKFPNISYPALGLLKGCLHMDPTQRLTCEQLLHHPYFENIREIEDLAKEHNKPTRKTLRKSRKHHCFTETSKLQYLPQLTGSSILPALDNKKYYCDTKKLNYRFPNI
T20 sequence (P49761 whole entry): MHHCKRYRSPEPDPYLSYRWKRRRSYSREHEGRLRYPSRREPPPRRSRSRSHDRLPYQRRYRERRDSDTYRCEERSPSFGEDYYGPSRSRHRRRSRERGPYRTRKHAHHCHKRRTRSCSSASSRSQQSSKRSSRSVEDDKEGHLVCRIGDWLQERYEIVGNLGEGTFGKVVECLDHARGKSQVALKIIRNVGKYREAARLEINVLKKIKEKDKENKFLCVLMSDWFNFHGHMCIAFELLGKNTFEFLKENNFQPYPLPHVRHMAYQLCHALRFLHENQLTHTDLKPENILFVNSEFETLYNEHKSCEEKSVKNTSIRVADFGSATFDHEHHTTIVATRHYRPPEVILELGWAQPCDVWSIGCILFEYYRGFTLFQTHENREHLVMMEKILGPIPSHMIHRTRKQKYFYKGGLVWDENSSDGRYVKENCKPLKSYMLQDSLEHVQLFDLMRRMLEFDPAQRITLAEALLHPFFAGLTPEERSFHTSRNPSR
T16 sequence (P33981 whole entry): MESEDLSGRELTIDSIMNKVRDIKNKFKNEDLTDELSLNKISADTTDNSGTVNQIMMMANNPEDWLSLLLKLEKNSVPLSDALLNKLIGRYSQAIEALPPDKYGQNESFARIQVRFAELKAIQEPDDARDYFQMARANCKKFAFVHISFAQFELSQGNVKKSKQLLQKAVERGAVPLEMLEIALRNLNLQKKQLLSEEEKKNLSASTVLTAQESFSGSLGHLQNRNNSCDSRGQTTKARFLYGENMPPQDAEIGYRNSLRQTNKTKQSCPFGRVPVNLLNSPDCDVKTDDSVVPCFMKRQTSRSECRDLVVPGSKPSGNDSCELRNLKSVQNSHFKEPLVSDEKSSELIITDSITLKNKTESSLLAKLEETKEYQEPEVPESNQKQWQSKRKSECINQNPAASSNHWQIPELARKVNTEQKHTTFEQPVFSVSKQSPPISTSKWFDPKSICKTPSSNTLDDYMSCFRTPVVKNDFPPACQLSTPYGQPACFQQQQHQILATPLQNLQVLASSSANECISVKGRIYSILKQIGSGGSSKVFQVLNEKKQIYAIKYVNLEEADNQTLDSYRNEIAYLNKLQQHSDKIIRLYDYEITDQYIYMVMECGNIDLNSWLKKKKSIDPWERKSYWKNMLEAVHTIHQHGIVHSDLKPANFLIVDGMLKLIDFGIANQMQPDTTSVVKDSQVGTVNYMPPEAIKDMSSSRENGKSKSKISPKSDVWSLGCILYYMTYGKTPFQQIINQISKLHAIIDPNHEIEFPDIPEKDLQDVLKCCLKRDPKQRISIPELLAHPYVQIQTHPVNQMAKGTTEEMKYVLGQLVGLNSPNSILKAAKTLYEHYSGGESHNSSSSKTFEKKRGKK
T12 sequence (Q9H4A3 whole entry): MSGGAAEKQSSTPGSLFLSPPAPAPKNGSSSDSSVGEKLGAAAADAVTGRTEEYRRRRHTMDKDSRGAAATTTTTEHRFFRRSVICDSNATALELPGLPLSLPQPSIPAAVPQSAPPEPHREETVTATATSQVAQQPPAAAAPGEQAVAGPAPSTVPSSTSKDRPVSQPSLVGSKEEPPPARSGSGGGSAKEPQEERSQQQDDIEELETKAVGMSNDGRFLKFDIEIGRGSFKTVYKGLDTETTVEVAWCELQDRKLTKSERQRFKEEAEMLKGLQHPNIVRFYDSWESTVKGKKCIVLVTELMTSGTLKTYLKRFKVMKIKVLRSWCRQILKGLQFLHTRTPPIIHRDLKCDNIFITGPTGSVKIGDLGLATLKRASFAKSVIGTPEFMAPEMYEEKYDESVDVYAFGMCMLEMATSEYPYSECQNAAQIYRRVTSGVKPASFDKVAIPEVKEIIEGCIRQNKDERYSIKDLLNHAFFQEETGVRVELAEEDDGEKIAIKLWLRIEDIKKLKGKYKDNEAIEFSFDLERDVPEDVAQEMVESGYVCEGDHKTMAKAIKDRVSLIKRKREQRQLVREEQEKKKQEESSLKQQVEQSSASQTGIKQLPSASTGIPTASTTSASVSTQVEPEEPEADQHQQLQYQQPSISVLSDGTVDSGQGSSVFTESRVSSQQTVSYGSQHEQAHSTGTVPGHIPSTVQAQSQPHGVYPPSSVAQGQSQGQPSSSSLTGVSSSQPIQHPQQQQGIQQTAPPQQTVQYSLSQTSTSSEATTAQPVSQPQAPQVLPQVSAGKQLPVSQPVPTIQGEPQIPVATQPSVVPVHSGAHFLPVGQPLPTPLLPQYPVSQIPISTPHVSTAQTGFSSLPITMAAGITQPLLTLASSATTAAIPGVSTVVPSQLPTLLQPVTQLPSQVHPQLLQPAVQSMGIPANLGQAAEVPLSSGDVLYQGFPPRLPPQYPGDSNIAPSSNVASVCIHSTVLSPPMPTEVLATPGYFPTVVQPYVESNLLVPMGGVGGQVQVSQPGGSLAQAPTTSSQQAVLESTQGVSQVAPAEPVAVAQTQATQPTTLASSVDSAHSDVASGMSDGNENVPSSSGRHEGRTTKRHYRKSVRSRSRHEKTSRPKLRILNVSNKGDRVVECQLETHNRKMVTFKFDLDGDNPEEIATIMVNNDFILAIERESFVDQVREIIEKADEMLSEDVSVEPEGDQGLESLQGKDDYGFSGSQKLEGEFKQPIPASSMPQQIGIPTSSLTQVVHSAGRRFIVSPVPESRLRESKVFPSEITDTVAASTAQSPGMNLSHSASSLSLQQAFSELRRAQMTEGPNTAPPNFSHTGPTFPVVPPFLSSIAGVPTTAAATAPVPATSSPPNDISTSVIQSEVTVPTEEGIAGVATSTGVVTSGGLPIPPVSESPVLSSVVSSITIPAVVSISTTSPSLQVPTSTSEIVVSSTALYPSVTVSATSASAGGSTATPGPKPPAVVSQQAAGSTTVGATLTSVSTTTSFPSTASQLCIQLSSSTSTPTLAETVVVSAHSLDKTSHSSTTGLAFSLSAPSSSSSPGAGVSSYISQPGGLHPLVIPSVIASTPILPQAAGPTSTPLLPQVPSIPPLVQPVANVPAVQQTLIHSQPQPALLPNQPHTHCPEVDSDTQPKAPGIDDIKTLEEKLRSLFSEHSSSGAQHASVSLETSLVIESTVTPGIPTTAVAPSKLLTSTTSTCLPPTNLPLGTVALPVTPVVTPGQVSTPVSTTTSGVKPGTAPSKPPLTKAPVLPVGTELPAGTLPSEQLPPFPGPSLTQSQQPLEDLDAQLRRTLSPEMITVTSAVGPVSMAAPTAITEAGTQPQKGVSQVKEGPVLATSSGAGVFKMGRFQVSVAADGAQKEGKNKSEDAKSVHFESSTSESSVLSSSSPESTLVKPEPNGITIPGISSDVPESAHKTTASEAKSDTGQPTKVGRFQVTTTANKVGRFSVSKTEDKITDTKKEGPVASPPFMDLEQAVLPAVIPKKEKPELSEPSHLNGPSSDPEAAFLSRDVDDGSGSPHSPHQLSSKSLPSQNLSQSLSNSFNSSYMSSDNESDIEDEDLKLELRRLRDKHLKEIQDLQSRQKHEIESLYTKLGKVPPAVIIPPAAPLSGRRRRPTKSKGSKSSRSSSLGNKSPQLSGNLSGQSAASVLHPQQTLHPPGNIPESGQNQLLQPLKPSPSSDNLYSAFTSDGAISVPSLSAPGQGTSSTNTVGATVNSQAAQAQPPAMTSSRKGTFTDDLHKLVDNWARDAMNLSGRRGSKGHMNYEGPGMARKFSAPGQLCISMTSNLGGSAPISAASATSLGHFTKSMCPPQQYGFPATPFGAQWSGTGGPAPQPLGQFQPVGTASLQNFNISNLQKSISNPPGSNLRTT
T21 sequence (Q99986 whole entry): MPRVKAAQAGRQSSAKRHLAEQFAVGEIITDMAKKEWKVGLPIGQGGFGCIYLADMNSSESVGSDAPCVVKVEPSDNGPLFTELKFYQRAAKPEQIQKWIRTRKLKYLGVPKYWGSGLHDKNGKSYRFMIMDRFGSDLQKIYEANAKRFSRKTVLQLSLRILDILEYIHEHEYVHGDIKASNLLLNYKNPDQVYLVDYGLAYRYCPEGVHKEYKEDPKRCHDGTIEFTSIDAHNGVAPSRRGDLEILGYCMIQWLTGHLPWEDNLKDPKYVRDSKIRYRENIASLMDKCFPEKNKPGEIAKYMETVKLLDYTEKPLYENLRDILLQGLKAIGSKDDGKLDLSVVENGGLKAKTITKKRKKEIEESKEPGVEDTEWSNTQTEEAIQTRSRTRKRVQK
T9 sequence (P51955 whole entry): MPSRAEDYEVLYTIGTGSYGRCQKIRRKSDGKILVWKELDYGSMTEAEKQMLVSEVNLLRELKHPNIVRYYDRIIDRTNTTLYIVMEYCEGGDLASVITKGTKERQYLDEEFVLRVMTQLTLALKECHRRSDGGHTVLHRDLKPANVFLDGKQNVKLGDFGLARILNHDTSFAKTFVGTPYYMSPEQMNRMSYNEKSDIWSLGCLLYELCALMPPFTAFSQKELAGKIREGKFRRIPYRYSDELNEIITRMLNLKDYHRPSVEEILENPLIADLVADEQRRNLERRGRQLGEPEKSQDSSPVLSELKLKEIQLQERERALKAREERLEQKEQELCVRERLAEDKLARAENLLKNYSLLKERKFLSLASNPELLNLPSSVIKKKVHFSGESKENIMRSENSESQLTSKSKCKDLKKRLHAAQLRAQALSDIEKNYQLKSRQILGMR

ΔTm at 10 µM (EPHB3): -0.9 °C | ΔTm at 10 µM (PLK4): 0.2 °C | ΔTm at 10 µM (PAK1): -0.5 °C | ΔTm at 10 µM (CAMKK2): 0.6 °C | ΔTm at 10 µM (EPHA7): 0.5 °C | ΔTm at 10 µM (CDC42BPA): 0.3 °C | ΔTm at 10 µM (STK3): -0.2 °C | ΔTm at 10 µM (MERTK): -0.1 °C | ΔTm at 10 µM (NEK2): 0.1 °C | ΔTm at 10 µM (SLK): 1.9 °C | ΔTm at 10 µM (STK10): 1.8 °C | ΔTm at 10 µM (WNK1): -0.9 °C | ΔTm at 10 µM (DCAMKL1): 0.2 °C | ΔTm at 10 µM (DAPK1): -0.5 °C | ΔTm at 10 µM (STK39): 0.6 °C | ΔTm at 10 µM (TTK1): 1.5 °C | ΔTm at 10 µM (CAMK2B): -2.3 °C | ΔTm at 10 µM (GAK): -0.6 °C | ΔTm at 10 µM (CDKL1): -0.4 °C | ΔTm at 10 µM (CLK3): 0.1 °C | ΔTm at 10 µM (VRK1): -0.4 °C | ΔTm at 10 µM (RIOK1): 0.2 °C | ΔTm at 10 µM (TOPK): -0.5 °C | ΔTm at 10 µM (MAP2K6): 0.5 °C | ΔTm at 10 µM (PKMYT1): -1 °C | ΔTm at 10 µM (RPS6KA6): 0.6 °C | ΔTm at 10 µM (CAMK1D): 1.1 °C
Structure (SMILES): CCc1cnc(Nc2nc(Cl)ccc2[N+](=O)[O-])nc1N1CCN(Cc2nc3cc(C(F)(F)F)ccc3[nH]2)CC1 [Compound 2]
